Results reported in article PMC11062922 (Nature Chemical Biology, 2023).

Legend:
FLT3 = assay: Kinobeads two-dose competition binding: FLT3; set-up: species or system human; conditions: for CATDS: target FLT3
ACVR1B = molecular target: T1, ACVR1B (Homo sapiens, UniProt P36896); assay: Kinobeads competition binding: ACVR1B; conditions: target ACVR1B
T1 construct: endogenous in cells
T1 sequence (P36896 24-505): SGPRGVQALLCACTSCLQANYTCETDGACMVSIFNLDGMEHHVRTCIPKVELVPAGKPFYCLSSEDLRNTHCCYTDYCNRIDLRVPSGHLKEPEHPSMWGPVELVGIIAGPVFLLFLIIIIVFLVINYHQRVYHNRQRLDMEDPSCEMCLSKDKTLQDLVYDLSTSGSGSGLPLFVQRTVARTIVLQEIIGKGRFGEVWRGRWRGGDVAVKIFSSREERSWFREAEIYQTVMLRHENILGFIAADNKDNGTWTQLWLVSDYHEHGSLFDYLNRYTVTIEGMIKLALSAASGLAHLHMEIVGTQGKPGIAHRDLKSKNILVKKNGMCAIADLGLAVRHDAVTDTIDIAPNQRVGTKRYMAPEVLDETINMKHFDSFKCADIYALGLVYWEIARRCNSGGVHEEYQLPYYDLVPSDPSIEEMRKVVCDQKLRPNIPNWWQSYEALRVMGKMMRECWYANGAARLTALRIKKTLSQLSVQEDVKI

ACVR2B = assay: Kinobeads competition binding: ACVR2B; set-up: species or system human; conditions: target ACVR2B
BMPR1A = assay: Kinobeads competition binding: BMPR1A; set-up: species or system human; conditions: target BMPR1A
CDK6 = molecular target: T2, CDK6 (Homo sapiens, UniProt Q00534); assay: Kinobeads competition binding: CDK6; conditions: target CDK6
T2 construct: endogenous in cells

CIT = molecular target: T3, CIT (Homo sapiens, UniProt O14578); assay: Kinobeads competition binding: CIT; conditions: target CIT
T3 construct: endogenous in cells
Excerpt: Supplement 41589_2023_1459_MOESM4_ESM.xlsx, sheet "CATDS matrix" | column: CIT

CLK1 = molecular target: T4, CLK1 (Homo sapiens, UniProt P49759); assay: Kinobeads competition binding: CLK1; conditions: target CLK1
T4 construct: endogenous in cells

CLK3 = assay: Kinobeads competition binding: CLK3; set-up: species or system human; conditions: target CLK3
CSNK1A1 = assay: Kinobeads competition binding: CSNK1A1; set-up: species or system human; conditions: target CSNK1A1
CSNK1D = molecular target: T5, CSNK1D (Homo sapiens, UniProt P48730); assay: Kinobeads competition binding: CSNK1D; conditions: target CSNK1D
T5 construct: endogenous in cells

EPHA1 = molecular target: T6, EPHA1 (Homo sapiens, UniProt P21709); assay: Kinobeads competition binding: EPHA1; conditions: target EPHA1
T6 construct: endogenous in cells
T6 sequence (P21709 26-976): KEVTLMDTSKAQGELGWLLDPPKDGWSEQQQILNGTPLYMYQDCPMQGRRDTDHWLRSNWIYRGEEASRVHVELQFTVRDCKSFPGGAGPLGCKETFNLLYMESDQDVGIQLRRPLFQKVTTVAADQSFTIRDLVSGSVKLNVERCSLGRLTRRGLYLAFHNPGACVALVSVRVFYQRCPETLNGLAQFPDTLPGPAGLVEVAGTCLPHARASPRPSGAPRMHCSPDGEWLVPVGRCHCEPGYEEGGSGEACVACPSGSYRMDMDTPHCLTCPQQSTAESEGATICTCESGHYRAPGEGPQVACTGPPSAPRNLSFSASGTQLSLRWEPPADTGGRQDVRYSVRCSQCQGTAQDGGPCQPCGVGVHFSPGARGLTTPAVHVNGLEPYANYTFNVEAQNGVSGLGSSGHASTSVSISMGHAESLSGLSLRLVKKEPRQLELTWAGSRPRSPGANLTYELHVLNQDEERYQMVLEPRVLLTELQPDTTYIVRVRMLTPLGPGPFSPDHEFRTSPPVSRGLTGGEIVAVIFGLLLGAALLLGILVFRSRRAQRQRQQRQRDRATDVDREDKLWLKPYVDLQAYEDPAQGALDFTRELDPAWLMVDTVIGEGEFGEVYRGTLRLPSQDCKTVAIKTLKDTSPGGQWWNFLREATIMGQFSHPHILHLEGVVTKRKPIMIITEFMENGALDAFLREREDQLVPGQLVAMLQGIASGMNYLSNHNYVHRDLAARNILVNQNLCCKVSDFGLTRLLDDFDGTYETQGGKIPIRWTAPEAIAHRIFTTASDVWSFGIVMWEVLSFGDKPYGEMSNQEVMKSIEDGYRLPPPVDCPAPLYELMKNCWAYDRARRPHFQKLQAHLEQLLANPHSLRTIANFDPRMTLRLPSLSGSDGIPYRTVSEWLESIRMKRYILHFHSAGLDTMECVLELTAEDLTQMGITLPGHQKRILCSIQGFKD
Excerpt: Supplement 41589_2023_1459_MOESM4_ESM.xlsx, sheet "CATDS matrix" | column: EPHA1

LYN = assay: Kinobeads competition binding: LYN; set-up: species or system human; conditions: target LYN
MARK3 = assay: Kinobeads competition binding: MARK3; set-up: species or system human; conditions: target MARK3
MARK4 = assay: Kinobeads competition binding: MARK4; set-up: species or system human; conditions: target MARK4
MDN1 = assay: Kinobeads competition binding: MDN1; set-up: species or system human; conditions: target MDN1
NEK1 = assay: Kinobeads competition binding: NEK1; set-up: species or system human; conditions: target NEK1
NEK2 = assay: Kinobeads competition binding: NEK2; set-up: species or system human; conditions: target NEK2
NQO2 = assay: Kinobeads competition binding: NQO2; set-up: species or system human; conditions: target NQO2
PI4KA = assay: Kinobeads competition binding: PI4KA; set-up: species or system human; conditions: target PI4KA
PIK3C3 = molecular target: T7, PIK3C3 (Homo sapiens, UniProt Q8NEB9); assay: Kinobeads competition binding: PIK3C3; conditions: target PIK3C3
T7 construct: a mixture of lysates from five cancer cell lines; endogenous in cells

PIK3CB = assay: Kinobeads competition binding: PIK3CB; set-up: species or system human; conditions: target PIK3CB
PIM1 = molecular target: T8, PIM1 (Homo sapiens, UniProt P11309); assay: Kinobeads competition binding: PIM1; conditions: target PIM1
T8 construct: a mixture of lysates from five cancer cell lines; endogenous in cells

PKMYT1 = assay: Kinobeads competition binding: PKMYT1; set-up: species or system human; conditions: target PKMYT1

Nc1ncnc2[nH]c(-c3ccccc3)nc12 [AH5015_KCGS]
0: CATDS (FLT3) | CATDS (ACVR1B) | CATDS (ACVR2B) | CATDS (BMPR1A) | CATDS (CDK6) | CATDS (CIT) | CATDS (CLK1) | CATDS (CLK3) | CATDS (CSNK1A1) | CATDS (CSNK1D) | CATDS (EPHA1) | CATDS (LYN) | CATDS (MARK3) | CATDS (MARK4) | CATDS (MDN1) | CATDS (NEK1) | CATDS (NEK2) | CATDS (NQO2) | CATDS (PI4KA) | CATDS (PIK3C3) | CATDS (PIK3CB) | CATDS (PIM1) | CATDS (PKMYT1)

CCc1cc2c(cc1N1CCC(N3CCOCC3)CC1)C(C)(C)c1[nH]c3cc(C#N)ccc3c1C2=O [Alectinib]
0: CATDS (FLT3) | CATDS (ACVR1B) | CATDS (ACVR2B) | CATDS (BMPR1A) | CATDS (CDK6) | CATDS (CIT) | CATDS (CLK1) | CATDS (CLK3) | CATDS (CSNK1A1) | CATDS (CSNK1D) | CATDS (EPHA1) | CATDS (LYN) | CATDS (MARK3) | CATDS (MARK4) | CATDS (MDN1) | CATDS (NEK1) | CATDS (NEK2) | CATDS (NQO2) | CATDS (PI4KA) | CATDS (PIK3C3) | CATDS (PIK3CB) | CATDS (PIM1) | CATDS (PKMYT1)

CCN1CCN(Cc2ccc(Nc3ncc(F)c(-c4cc(F)c5nc(C)n(C(C)C)c5c4)n3)nc2)CC1 [Abemaciclib]
0.02291: CATDS (CIT)
0.03255: CATDS (PIM1)
0: CATDS (FLT3) | CATDS (ACVR1B) | CATDS (ACVR2B) | CATDS (BMPR1A) | CATDS (CLK3) | CATDS (CSNK1A1) | CATDS (CSNK1D) | CATDS (EPHA1) | CATDS (LYN) | CATDS (MARK3) | CATDS (MARK4) | CATDS (MDN1) | CATDS (NEK1) | CATDS (NEK2) | CATDS (NQO2) | CATDS (PI4KA) | CATDS (PIK3C3) | CATDS (PIK3CB) | CATDS (PKMYT1)

CN(C)C/C=C/C(=O)Nc1cc2c(Nc3ccc(F)c(Cl)c3)ncnc2cc1O[C@H]1CCOC1 [Afatinib]
0: CATDS (CIT) | CATDS (CSNK1D) | CATDS (EPHA1) | CATDS (MDN1) | CATDS (NQO2) | CATDS (PI4KA)

COc1cc(Nc2ncc3c(C)nc(-c4cc5ccccc5[nH]4)n3n2)cc(OC)c1OC [GW869516X]
no target: Kinobeads Data (FLT3; FLT3)

N#CC1(c2ccc(NC(=O)c3cccnc3NCc3ccncc3)cc2)CCCC1 [Apatinib]
0: CATDS (FLT3) | CATDS (ACVR1B) | CATDS (ACVR2B) | CATDS (BMPR1A) | CATDS (CDK6) | CATDS (CIT) | CATDS (CLK1) | CATDS (CLK3) | CATDS (CSNK1A1) | CATDS (CSNK1D) | CATDS (EPHA1) | CATDS (LYN) | CATDS (MARK3) | CATDS (MARK4) | CATDS (MDN1) | CATDS (NEK1) | CATDS (NEK2) | CATDS (NQO2) | CATDS (PI4KA) | CATDS (PIK3C3) | CATDS (PIK3CB) | CATDS (PIM1) | CATDS (PKMYT1)
